Test results reported in patent US20070265451A1, “Process for the preparation of oxazolidinones and method of use thereof” (Board of Trustees of Michigan State University, priority 2001, published 2007).
Converted amounts (≈) assume the structure as drawn.

How the values were obtained:
Type in all cases: cell-based
[1] = system: Staphylococcus aureus 29213; assay: Broth microdilution MIC, Staphylococcus aureus ATCC 29213; conditions: Staphylococcus aureus; for MIC: ATCC29213, Table 2, read-out: MIC(90-100) SA-ATCC 29213; for MIC90: ATCC29212, Table 1, SA, strain ATCC 29212, read-out: MIC90-100 SA ATCC 29212
From the text: (§1) See, NCCLS document M7-A5. Methods for Dilution Antimicrobial Susceptibility Tests for Bacteria That Grow Aerobically; Approved Standard-Fifth Edition. Volume 20, Number 2. January 2000, (ISBN 1-56238-394-9) and Lorian V. Antibiotics. Laboratory Medicine. 4th ed. Baltimore: Williams and Wilkins, pp. 52-111 (1996). For subsequent testing, the following strains have been used: Staphylococcus aureus NRS4 (992; HIP5836; New Jersey) (Smith et al., New Engl. J. Med. 340: 493-501 (1999); Tenover et al., J. Clin. Microbiol. 36: 1020-1027 (1998)), Staphylococcus aureus NRS3 (963sm; HIP5827; Michigan) (Smith et al., ibid.; Tenover et al., ibid.), Staphylococcus aureus NRS103 (Becker) (Karakawa and Vann, Sem. Infect. Dis. 4: 285 (1982), Staphylococcus aureus NRS102 (Reynolds) Karakawa and Vann, ibid; McMurray et al., JID 162: 759-762 (1990)), Staphylococcus epidermidis NRS101 (ATCC 35984), Streptococcus pneumoniae (ATCC 49619), Enterococcus faecalis (ATCC 51299), and Staphylococcus aureus (ATCC 43300.
(§2) Stock cultures of these strains were obtained by seeding colonies from overnight streak plates (Tryptic Soy Agar II (TSAII) and 5% sheep's blood (SB) agar plates: Becton Dickinson, CA#2211261) into sterile Mueller-Hinton Broth (MHB)(Becton Dickinson, CA#211443) and growing the suspensions to mid-late log phase in 13 mL screw-cap tubes. Glycerol (Sigma, CA#G-6279) was sterilized by autoclaving for 15 minutes at 121° C. in 6 mL volumes, and then stored at 2-8° C. This was diluted to 20% in dH2O, and then added 1:1 (250 μL:250 μL, 10% final glycerol concentration) to the logarithmically growing bacterial suspension of each strain. Tubes were frozen and stored at −70° C. Purity of the stock cultures was tested by thawing one tube of each strain in a water bath at 37° C. and plating them on TSAII with 5% SB. Plates were incubated overnight at 37° C. and colonies were examined for morphology. Growth curves and approximate CFU/mL were also obtained.
(§3) High purity substituted oxazolidinones prepared according to the method of the present invention and a ZYVOX standard (ZYVOX is a trade name for linezolid available from Pharmacia Corporation) were provided by Synthon Corporation, Monmouth Junction, N.J. Compounds were dissolved at 10 mg/mL in DMSO, as after a dilution of approx. 39.0 to reach the desired final starting concentration of 256 ug/ml, the concentration of DMSO is approximately 2.5%. Compounds were then stored at room temperature (25° C.) in the dark.
(§4) Antimicrobial susceptibility screening was as follows. All compounds were initially screened for activity in duplicate at 256 μg/mL (2.5% DMSO), including ZYVOX, the positive control for antimicrobial activity. A single well of bacterially inoculated 2.5% DMSO served as a positive control for bacterial growth, while a well of DMSO inoculated with of 50 μL of sterile 0.9% saline served as a negative growth control. Controls were prepared on every microplate, so that 46 was the maximum number of compounds that were screened per plate. Broth was pipetted into sterile microcentrifuge tubes, to which the compounds were then added (1:19.53 dilution or 2× final concentration). Each tube was vortexed, and 50 μL was immediately transferred to the microplate wells for each strain. Solubility was assessed by visual observation. MB (medium broth solubility) was recorded if the solution appeared only slightly cloudy. LB (low broth solubility) was recorded if the solution was extremely cloudy, and especially if larger, clumpy precipitates formed. Bacteria were grown as described above, although absorbance was measured at 650 nm and bacteria were diluted to an initial OD of 0.12-0.15. Bacteria were then further diluted 1:100 with 0.9% sterile saline. Within 15 minutes of this final dilution, 50 μL of this suspension was added to each well for a final volume of […], and a final bacterial concentration of 1×10^5 CFU/mL (except for the negative control well). Plates were grown as above and all observations were recorded. […]

[2] = system: Enterococcus faecalis 29212; assay: Broth microdilution MIC, Enterococcus faecalis ATCC 29212; conditions: for MIC / MIC90: Enterococcus faecalis; for MIC: ATCC29212, Table 2, read-out: MIC(90-100) EF-ATCC 29212; for MIC90: ATCC29213, Table 1, read-out: MIC90-100 EF ATCC 29213
[3] = system: Staphylococcus aureus NRS4 (992; HIP5836; New Jersey); assay: Broth microdilution MIC, MR SA New Jersey; conditions: strain New Jersey; for MIC90: Staphylococcus aureus, NRS4, methicillin resistant SA, read-out: MIC90-100 MR SA New Jersey
From the text: as §1, §2, §3, §4

[4] = system: Staphylococcus aureus NRS3 (963sm; HIP5827; Michigan); assay: Broth microdilution MIC, MR SA Michigan; conditions: strain Michigan; for MIC90: Staphylococcus aureus, NRS3, methicillin resistant SA, read-out: MIC90-100 MR SA Michigan
From the text: as §1, §2, §3, §4

[5] = system: Staphylococcus aureus NRS102 (Reynolds); assay: Broth microdilution MIC, Pen. R SA Reynolds; conditions: strain Reynolds, read-out: MIC90-100 Pen. R SA Reynolds
From the text: as §1, §2, §3, §4

[6] = system: Staphylococcus aureus NRS103 (Becker); assay: Broth microdilution MIC, Ref SA Becker; conditions: strain Becker, read-out: MIC90-100 Ref SA Becker
From the text: as §1, §2, §3, §4

[7] = system: Enterococcus faecalis (ATCC 51299); assay: Broth microdilution MIC, Enterococcus faecalis ATCC 51299; conditions: ATCC51299, vancomycin sensitive EF, ATCC 51299, read-out: MIC90-100 VS EF ATCC 51299
From the text: as §1, §2, §3, §4

[8] = system: Staphylococcus aureus (ATCC 43300); assay: Broth microdilution MIC, MR SA ATCC 43300; conditions: ATCC43300, methicillin resistant SA, read-out: MIC90-100 MR SA ATCC 43300
From the text: as §1, §2, §3, §4

[9] = system: Myeloid bone marrow cells; assay: Bone marrow cell growth inhibition, myeloid
From the text: (§5) In general, many of the substituted oxazolidinones were as effective as ZYVOX.

[10] = system: Erythroid bone marrow cells; assay: Bone marrow cell growth inhibition, erythroid
From the text: as §5

[11] = system: Megakaryocytic bone marrow cells; assay: Bone marrow cell growth inhibition, megakaryocytic
From the text: as §5

Structure (SMILES) | MIC [1] | MIC [2] | MIC90 [1] | MIC90 ([2]; EF, strain printed ATCC 29213) | MIC90 [3] | MIC90 [4] | MIC90 [5] | MIC90 [6] | further results
O=C1NCC(COS(=O)(=O)c2ccc(Cl)cc2[N+](=O)[O-])O1 (centres unmarked) [Compound 1998] | 16 µg/mL (≈ 47.5 µM) | 64 µg/mL (≈ 190 µM) |  |  |  |  |  |  | 
O=C1OC(COSc2ccc([N+](=O)[O-])cc2)CN1Cc1ccc([N+](=O)[O-])cc1 (centres unmarked) [Compound 2017] | 16 µg/mL (≈ 39.5 µM) | 8 µg/mL (≈ 19.7 µM) |  |  |  |  |  |  | 
O=C1OC(COSc2ccc([N+](=O)[O-])cc2)CN1Cc1ccc(Br)cc1 (centres unmarked) [Compound 2019] | 16 µg/mL (≈ 36.4 µM) | 32 µg/mL (≈ 72.8 µM) |  |  |  |  |  |  | 
O=C(OCC1CN(Cc2ccc(Br)cc2)C(=O)O1)Oc1ccc([N+](=O)[O-])cc1 (centres unmarked) [Compound 2020] | 64 µg/mL (≈ 142 µM) | 124 µg/mL (≈ 275 µM) |  |  |  |  |  |  | 
O=C1O[C@H](CNSc2ccc([N+](=O)[O-])cc2)CN1c1ccc([N+](=O)[O-])cc1 [Compound 2278] |  |  | 4 µg/mL (≈ 10.2 µM) | 2 µg/mL (≈ 5.12 µM) | 4 µg/mL (≈ 10.2 µM) | 4 µg/mL (≈ 10.2 µM) | 8 µg/mL (≈ 20.5 µM) | 8 µg/mL (≈ 20.5 µM) | 
CCN1C[C@@H](COS(=O)(=O)c2ccc([N+](=O)[O-])cc2)OC1=O [Compound 2405] |  |  | 2 µg/mL (≈ 6.05 µM) |  |  |  | 8 µg/mL (≈ 24.2 µM) | 4 µg/mL (≈ 12.1 µM) | MIC90-100 EF ATCC 29213 ([2]; Table 1, EF, strain printed ATCC 29213): 2 µg/mL (≈ 6.05 µM); MIC90-100 MR SA New Jersey ([3]; methicillin resistant SA): 4 µg/mL (≈ 12.1 µM); MIC90-100 MR SA Michigan ([4]; methicillin resistant SA): 2 µg/mL (≈ 6.05 µM)
CC(=O)NC[C@H]1CN(c2ccc(N3CCOCC3)c(F)c2)C(=O)O1 [ZYVOX, linezolid, reference compound] |  |  | 2 µg/mL (≈ 5.93 µM) | 2 µg/mL (≈ 5.93 µM) | 2 µg/mL (≈ 5.93 µM) | 2 µg/mL (≈ 5.93 µM) | 1 µg/mL (≈ 2.96 µM) | 1 µg/mL (≈ 2.96 µM) | MIC90 [7]: 0.5 µg/mL (≈ 1.48 µM); MIC90 [8]: 1 µg/mL (≈ 2.96 µM); IC50 [9]: 20 µg/mL (≈ 59.3 µM); IC50 [10]: 0.08 µg/mL (≈ 0.237 µM); IC50 [11]: 4 µg/mL (≈ 11.9 µM)

The next lines start with results.

MIC [1] | MIC [2] | MIC90 [1] | MIC90 ([2]; EF, strain printed ATCC 29213) | MIC90 [3] | MIC90 [4] | MIC90 [5] | MIC90 [6] | Structure (SMILES) | further results
64 µg/mL (≈ 189 µM) | 32 µg/mL (≈ 94.6 µM) |  |  |  |  |  |  | CC(=O)/C=C/N1CC(COSc2ccc([N+](=O)[O-])cc2)OC1=O (centres unmarked) [Compound 2023] | 
64 µg/mL (≈ 174 µM) | 32 µg/mL (≈ 86.9 µM) |  |  |  |  |  |  | CCOC(=O)/C=C/N1CC(COSc2ccc([N+](=O)[O-])cc2)OC1=O (centres unmarked) [Compound 2025] | 
 |  | 4 µg/mL (≈ 12.8 µM) | 4 µg/mL (≈ 12.8 µM) | 4 to 8 µg/mL (≈ 12.8 to 25.7 µM) | 4 to 8 µg/mL (≈ 12.8 to 25.7 µM) | 32 µg/mL (≈ 103 µM) | 16 µg/mL (≈ 51.4 µM) | CC(C)N1C[C@H](CNSc2ccc([N+](=O)[O-])cc2)OC1=O [Compound 2428] | 
